“Also recorded” adds a separate entry of the source. Square brackets hold non-standard residues; d marks the D form. Peptide text beside a SMILES is read from it. Cya = N[CH](CS(=O)(=O)O)C(=O)O
Key:
Rabbits = format: in vivo
Procedure: In this example, the PVD-Inducing Effects of RGD Peptides and Glycyl-Arginyl-Glycyl-Cysteic-Threonyl-Proline-COOH (RG Cysteic Acid Peptide; GRG Cysteic Acid TP; Compound 1) (SEQ ID NO: 2) were compared in rabbits. The protocol for this study was as follows:
Animal Model • a) 20 Male and Female Rabbits • b) Weighing approximately 1.5-2.5 kg. • c) Divide into 2 groups
i) 10 Rabbits were injected intravitreally with 2.5% RGD solution at pH=6.5 • a) 10 Right Eye injected with 2.5% RGD solution • b) 5 Left Eye used as BSS Control • c) 5 Left Eyes injected with 2.5% RGD+0.02% EDTA at pH=6.5
ii) 10 Rabbits were injected intravitreally with 2.5% RGCysteic solution at pH=6.5 • a) 10 Right Eye injected with 2.5% RGCysteic solution at pH=6.5 • b) 10 Left Eye injected with 2.5% RGCysteic solution+0.02% EDTA at pH=6.5
Active Chemicals • d) Sodium EDTA—99.0-100.5% from Spectrum Chemical Corp. • e) RG Cysteic Acid—cGMP supplier (Purity>98%). • f) RGD—cGMP supplier (Purity>98%). • g) BSS solution
Both the RG Cysteic Acid, RGD, RG Cysteic Acid+Sodium EDTA, RGD+Sodium EDTA, and the BSS solutions were injected into the vitreous cavity 24 hours prior to surgery. The rabbits ([…]) were anesthetized with an intramuscular injection of 2.0 ml of 1:1 combination of xylazine (100 mg/ml) and Ketamine hydrochloride (100 mg/ml). Pupils are dilated with topical cyclopentolate hydrochloride 1% and Phenylephrine hydrochloride 10%.
All animals were initially examined with slit lamp biomicroscopy and indirect ophthalmoscopy to exclude any animals with pre-existing vitreoretinal abnormalities. The intravitreal injection of 0.10 cc was administered 2 mm posterior to the limbus in the supranasal quadrant using a 30-gauge needle attached to a 1.0 cc syringe. Care must be taken to avoid damage to the lens or retina.
Twenty four hours following injection and immediately before initiation of a mechanical vitrectomy, a B-scan ultrasonography was performed to determine the status of the posterior vitreous and also the liquefaction of the vitreous. A two-port pars plana vitrectomy was performed using an infusion fiberoptic and a vitreous cutter attached to a vitrectomy unit. Following a 30 second core vitrectomy, the vitreous cutter was directed to the peripapillary retinal surface where, using low aspiration (<30 mmHg) a separation of the posterior cortical vitreous from the retinal surface was attempted in 4 quadrants. The sclerotomies were sutured and a postoperative B-Scan ultrasonography was carried out to determine the presence and extent of any PVD present in each quadrant. The animals were euthanized with intracardiac sodium pentobarbital injections, and the eyes were immediately enucleated.
; • Grade 0. a) No detachment of the posterior Vitreous is observed. • b) Vitreous Liquefaction • Grade 1. a) Consists of eyes in which the vitreous is detached in 2 or less quadrants. • b) Vitreous Liquefaction • Grade 2. a) Consists of eyes in which the vitreous is detached in 3 or more quadrants, but with remaining focal attachments along the medullary rays • b) Vitreous Liquefaction • Grade 3. a) Consists of eyes in which the vitreous is totally detached from the retinal surface • b) Vitreous Liquefaction
Care was taken to avoid damage to the adjacent retina and lens. The eyes were immersed in 2% paraformaldehyde plus 2.5% glutaraldehyde for a minimum of 24 hours at 4 degrees Celsius. A unique posterior calotte was removed, dehydrated in methanol, and dried in carbon dioxide to the critical point, sputter-coated in gold and photographed using the scanning electron microscope.

[1] = test system: ischemic retinopathy mouse model; test: ROP / ischemic retinopathy mouse model, pre-retinal neovascularization; format: in vivo
Procedure: In this Example, Compound 1 was tested in an ischemic retinopathy mouse model to explore the feasibility of suppressing pre-retinal neovascularization.
Mice that had ischemic retinopathy were injected intravitreously with a single dose of Compound 1 at the concentration of 0.125 μg/1 μL, 12.5 μg/1 μL, 25.0 μg/1 μL and at 50.0 μg/1 μL (Groups B, D, F and H, respectively), as well as a vehicle (BSS) (Controls 1, 2, 3 and 4) on post-natal day 12. On post-natal day 17, 5 days after intravitreal injection, the area of neovascularization was measured by image analysis. FIG. 9 is a bar graph comparing the measured area of neovascularization in mice treated with these varying doces of compound 1 or control (vehicle only).

[2] = Table B, single intravitreal 2.5 mg/100 μL, 24 hour follow up
[3] = Table B, single intravitreal 2.5 mg/100 μL, 24 hour follow up, share of eyes

## CC(O)C(NC(=O)C(CS(=O)(=O)O)NC(=O)CNC(=O)C(CCCNC(=N)N)NC(=O)CN)C(=O)N1CCCC1C(=O)O (stereo not shown) [Compound 1, Glycinyl-Arginyl-Glycinyl-Cysteic-Threonyl-Proline-COOH] (H-GRG[Cya]TP-OH; configuration not given here)
Rabbits; 2.5% intravitreal 0.10 cc, OD treated eye, 24 hours after injection, one value per animal, listed as RG Cysteic Acid
  PVD grade (postoperative B-scan): Grade 3 -; also recorded: Grade 2 - (Consists of eyes in which the vitreous is detached in 3 or more quadrants, but with remaining focal attachments along the medullary rays); also recorded: Grade 1 - (Consists of eyes in which the vitreous is detached in 2 or less quadrants.)
Rabbits; 2.5% intravitreally, 24 hours
  liquefaction of the vitreous: completely liquefied
Rabbits; 2.5% intravitreally, in 24 hours
  separation of the vitreous from the retina: complete separation of the vitreous from the retina
Rabbits; [2]
  Ocular toxicity: RPE toxicity: No RPE toxicity
  Ocular toxicity: cataract formation: No cataract formation
  Ocular toxicity: exudates: No exudates
  Ocular toxicity: inflammation: No inflammation
  Ocular toxicity: retinal hemorrhage: No retinal hemorrhage
  Ocular toxicity: retinal tears, breaks or detachments: No retinal tears, breaks
  Ocular toxicity: retinal vascular compromise: No retinal vascular
Rabbits; [3]
  Complete Liquefaction: PVD - 80% Complete
  Total PVD: Group 1: - 60% Total
Rabbits; rabbits, 2.5% intravitreal
  activity in inducing complete PVD and liquefying the vitreous, compared with RGD: equal or slightly better than that of RGD
  activity when administered with 0.02% Sodium Edetate: not altered
  adverse effects from the intravitreal injection: no adverse effects or adverse safety effects
[1]; Group B, single intravitreal 0.125 μg/1 μL on post-natal day 12, measured day 17
  size of neovascularization lesions: somewhat smaller
[1]; Group D, single intravitreal 12.5 μg/1 μL on post-natal day 12, measured day 17, statistically significant vs control
  size of neovascularization lesions: greatly decreased
[1]; Group F, single intravitreal 25.0 μg/1 μL on post-natal day 12, measured day 17, statistically significant vs control
  size of neovascularization lesions: greatly decreased
[1]; Group H, single intravitreal 50.0 μg/1 μL on post-natal day 12, measured day 17, statistically significant vs control
  size of neovascularization lesions: greatly decreased
